Here are results for 21 sequences from patent US7381705B2, “Inhibitors of hepatitis C virus” (The Administrators Of The Tulane Educational Fund, priority 2004, dated 2008).

Where two headings read alike, the source gives them in different places. Ends that are not written are not given here.

For the experiment, the system named is HCV pseudotype (HIV core proteins, HCV E1 and E2 of strain H77). The settings on record: for Percent inhibition: 25 μM; for Inhibition of HCV pseudotype infectivity (in words): summary of Tables 7 and 8.
Setting [1] is: HCV H77 1a E2 peptides at ~25 μM, Table 7, virus alone 448,123.
The mark [2] stands for this setting: HCV J4 1b E2 peptides at ~25 μM, Table 8, controls as in Table 7.

With PTDCFRKHPEATYSRCGS [compound 28], the Percent inhibition was found to be 11.9%. The Luciferase units under setting [1] is listed as 394,780 luciferase units (lumens).

Take PTDCFRKHPEATYTKCGS [compound 104]: the Percent inhibition is given as 6.3%. The Luciferase units under setting [2] was 419,876 luciferase units (lumens).

In the case of “PVYCFTPSPVVVGTTDRS [compound 18, PVYCFTPSPVVVGTTDRS]”, the Percent inhibition is 2.9%. The Luciferase units under setting [1] is listed as 435,026 luciferase units (lumens).

For “PVYCFTPSPVVVGTTDRS [compound 94, PVYCFTPSPVVVGTTDRS]”, the Percent inhibition was 30.4%. Further, the Luciferase units under setting [2] was 311,736 luciferase units (lumens).

Turning to PYCWHYAPRPCGVVPASQ [compound 91], the Percent inhibition was 69.1%. Under setting [2], the Luciferase units was 160,883 luciferase units (lumens).

In the case of “QILPCAFTTLPALSTGLI [compound 116, QILPCAFTTLPALSTGLI]”, the Percent inhibition is recorded as 12.1%. Further, the Luciferase units under setting [2] was 394,096 luciferase units (lumens).

Consider “QNIVDVQYLYGVGSSIAS [compound 44, QNIVDVQYLYGVGSSIAS]”, for which the Percent inhibition amounted to 79.6% and the “Inhibition of HCV pseudotype infectivity (in words)” value (from here on “Inhibition … (in words)”) is “inhibitory”. In addition, the Luciferase units under setting [1] is listed as 91,266 luciferase units (lumens).

For the sequence “QVLPCSFTTLPALSTGLI [compound 41, QVLPCSFTTLPALSTGLI]”, the Percent inhibition was 3.0%. Moreover, the Luciferase units under setting [1] is 434,743 luciferase units (lumens).

As to RCGSGPWITPRCMVDYPY [compound 30], the Percent inhibition is on record as −46.2%. In addition, the Luciferase units under setting [1] was 655,040 luciferase units (lumens).

For the sequence “RSELSPLLLSTTQWQVLP [compound 39, RSELSPLLLSTTQWQVLP]”, the Percent inhibition turned out to be 11.6%. Also, the Luciferase units under setting [1] is listed as 400,756 luciferase units (lumens).

For the sequence “SIASWAIKWEYVVLLFLL [compound 46, SIASWAIKWEYVVLLFLL]”, the Percent inhibition is listed as 77.0% and the “Inhibition … (in words)” value was “inhibitory”. Further, the Luciferase units under setting [1] was 103,040 luciferase units (lumens).

As for “SPVVVGTTDRSGAPTYSW [compound 19, SPVVVGTTDRSGAPTYSW]”, the Percent inhibition is recorded as 32.7%. Further, the Luciferase units under setting [1] is given as 301,406 luciferase units (lumens).

Regarding “SPVVVGTTDRSGVPTYSW [compound 95, SPVVVGTTDRSGVPTYSW]”, the Percent inhibition is recorded as −20.1%. In addition, the Luciferase units under setting [2] was 538,110 luciferase units (lumens).

Take SSGCPERLASCRRLTDFA [compound 10]: the Percent inhibition amounted to 25.4%. Further, the Luciferase units under setting [1] is given as 334,196 luciferase units (lumens).

Take SSGCPERMASCRPIDWFA [compound 87]: the Percent inhibition was 10.8%. The Luciferase units under setting [2] is 399,700 luciferase units (lumens).

With “TDFAQGWGPISYANGSGL [compound 12, TDFAQGWGPISYANGSGL]”, the Percent inhibition came to 6.8%. Also, under setting [1], the Luciferase units is 417,706 luciferase units (lumens).

With “TDRSGVPTYSWGENETDV [compound 96, TDRSGVPTYSWGENETDV]”, the Percent inhibition is listed as −21.5%. For the same sequence, the Luciferase units under setting [2] is given as 544,596 luciferase units (lumens).

Regarding “TGFFAALFYAHKFNSSGC [compound 51, TGFFAALFYAHKFNSSGC]”, the Percent inhibition was determined as 47.1%. Under setting [2], the Luciferase units is 237,086 luciferase units (lumens).

For the sequence “TGLIHLHQNIVDVQYLYG [compound 43, TGLIHLHQNIVDVQYLYG]”, the Percent inhibition amounted to 92.8% and the “Inhibition … (in words)” value is on record as “inhibitory”. In addition, under setting [1], the Luciferase units is listed as 32,283 luciferase units (lumens).

TKTCGGPPCNIGGVGNRT [compound 101]: the Percent inhibition is −12.0%. In addition, the Luciferase units under setting [2] was 502,096 luciferase units (lumens).

Consider TKVCGAPPCVIGGVGNNT [compound 25], for which the Percent inhibition was 7.2%. Further, under setting [1], the Luciferase units is 480,280 luciferase units (lumens).
